Like-named read-outs stand apart in the source and are kept apart here.
Key:
Avena fatua (AVEFA) = experiment: greenhouse pre-emergence herbicidal activity; type: in vivo; details: 50 g ai/ha, read-out: observed % activity
From the text: (§1) For the pre-emergence treatment, directly after sowing the active compounds, which had been suspended or emulsified in water, were applied by means of finely distributed nozzles. The containers were irrigated gently to promote germination and growth and subsequently covered with transparent plastic hoods until plant had rooted. This cover caused uniform germination of the tests plants, unless this was adversely affected by active compounds.
(§2) The respective herbicides A and/or safener were formulated as 10% by weight strength suspension concentrate and introduced to the spray liquor with the amount of solvent system used for applying the active compound. Herbicide B and/or safener were used as commercially available formulations and introduced to the spray liquor with the amount of solvent system used for applying the active compound. In the examples, the solvent used was water.
(§3) Pendimethalin was used as a commercial aqueous suspension concentrate having an active ingredient concentration of 400 g/l.
(§4) The test period extended over 21 days. During this time, the plants were tended, and their response to the treatments with active compound was evaluated.
(§5) The evaluation for the damage caused by the chemical compositions was carried out using a scale from 0 to 100%, compared to the untreated control plants. Here, 0 means no damage and 100 means complete destruction of the plants.
(§6) The value E, which is to be expected if the activity of the individual compounds is just additive, was calculated using the method of S. R. Colby (1967) “Calculating synergistic and antagonistic responses of herbicide combinations”, Weeds 15, p. 22 ff.
(§7) where • X=effect in percent using herbicide A at an application rate a; • Y=effect in percent using herbicide B at an application rate b; • E=expected effect (in %) of A+B at application rates a+b.
(§8) If the value observed in this manner is higher than the value E calculated according to Colby, a synergistic effect is present.

Bromus inermis (BROIN) = experiment: greenhouse pre-emergence herbicidal activity; type: in vivo; details: read-out: observed % activity; for inhibition at 6.25 g/ha: 6.25 g ai/ha; for inhibition at 12.5 g/ha: 12.5 g ai/ha; for inhibition at 25 g/ha: 25 g ai/ha; for inhibition at 50 g/ha: 50 g ai/ha
From the text: as §1, §2, §3, §4, §5, §6, §7, §8

[1] = tested on: Capsella bursa-pastoris (CAPBP); experiment: greenhouse pre-emergence herbicidal activity; type: in vivo; details: read-out: observed % activity; for inhibition at 25 g/ha: 25 g ai/ha; for inhibition at 50 g/ha: 50 g ai/ha
From the text: as §1, §2, §3, §4, §5, §6, §7, §8

Galium aparine (GALAP) = experiment: greenhouse pre-emergence herbicidal activity; type: in vivo; details: read-out: observed % activity; for inhibition at 6.25 g/ha: 6.25 g ai/ha; for inhibition at 25 g/ha: 25 g ai/ha; for inhibition at 50 g/ha: 50 g ai/ha
From the text: as §1, §2, §3, §4, §5, §6, §7, §8

[2] = tested on: Phalaris canariensis (PHACA); experiment: greenhouse pre-emergence herbicidal activity; type: in vivo; details: 6.25 g ai/ha, read-out: observed % activity
From the text: as §1, §2, §3, §4, §5, §6, §7, §8

Thlaspi arvense (THLAR) [3] = experiment: greenhouse pre-emergence herbicidal activity; type: in vivo; details: read-out: observed % activity; for inhibition at 12.5 g/ha: 12.5 g ai/ha; for inhibition at 50 g/ha: 50 g ai/ha
From the text: as §1, §2, §3, §4, §5, §6, §7, §8

Veronica persica (VERPE) = experiment: greenhouse pre-emergence herbicidal activity; type: in vivo; details: read-out: observed % activity; for inhibition at 6.25 g/ha: 6.25 g ai/ha; for inhibition at 12.5 g/ha: 12.5 g ai/ha; for inhibition at 25 g/ha: 25 g ai/ha; for inhibition at 50 g/ha: 50 g ai/ha
From the text: as §1, §2, §3, §4, §5, §6, §7, §8

[4] = tested on: Alopecurus myosuroides (ALOMY); experiment: greenhouse post-emergence herbicidal activity; type: in vivo; details: 25 g ai/ha; for inhibition at 25 g/ha: Alopecurus myosuroides, read-out: observed % activity
From the text: (§9) For the post-emergence treatment, the test plants were first grown to a height of 3 to 20 cm, depending on the plant habit, and only then treated. Here, the herbicidal compositions were suspended or emulsified in water as distribution medium and sprayed using finely distributing nozzles.
as §2, §3, §4, §5, §6, §7, §8

[5] = tested on: Amaranthus retroflexus (AMARE); experiment: greenhouse post-emergence herbicidal activity; type: in vivo; details: 13 g ai/ha, 20 DAT
From the text: as §9, §2, §3, §4, §5, §6, §7, §8

[6] = tested on: Apera spica-venti (APESV); experiment: greenhouse post-emergence herbicidal activity; type: in vivo; details: 50 g ai/ha, 20 DAT
From the text: as §9, §2, §3, §4, §5, §6, §7, §8

[7] = tested on: Capsella bursa-pastoris (CAPBP); experiment: greenhouse post-emergence herbicidal activity; type: in vivo; details: 25 g ai/ha, 20 DAT
From the text: as §9, §2, §3, §4, §5, §6, §7, §8

Lamium purpureum (LAMPU) = experiment: greenhouse post-emergence herbicidal activity; type: in vivo; details: 50 g ai/ha, 20 DAT
From the text: as §9, §2, §3, §4, §5, §6, §7, §8

[8] = tested on: Matricaria inermis (MATIN); experiment: greenhouse post-emergence herbicidal activity; type: in vivo; details: 50 g ai/ha, read-out: observed % activity
From the text: as §9, §2, §3, §4, §5, §6, §7, §8

Stellaria media (STEME) = experiment: greenhouse post-emergence herbicidal activity; type: in vivo; details: 20 DAT
From the text: as §9, §2, §3, §4, §5, §6, §7, §8

Thlaspi arvense (THLAR) [9] = experiment: greenhouse post-emergence herbicidal activity; type: in vivo; details: for inhibition at 100 g/ha: Thlaspi arvense, read-out: observed % activity
From the text: as §9, §2, §3, §4, §5, §6, §7, §8

Viola arvensis (VIOAR) = experiment: greenhouse post-emergence herbicidal activity; type: in vivo; details: 25 g ai/ha, 20 DAT
From the text: as §9, §2, §3, §4, §5, §6, §7, §8

harmful plants = details: known from Y. Yamaji et al., 2006; cited from earlier work

## Cn1nc(C(F)(F)F)c(CS(=O)(=O)C2=NOC(C)(C)C2)c1OC(F)F [pyroxasulfone, 3-[5-(difluoromethoxy)-1-methyl-3-(trifluoromethyl)pyrazol-4-ylmethylsulfonyl]-4,5-dihydro-5,5-dimethyl-1,2-oxazole]
Avena fatua (AVEFA); 192 h, 8 DAT
  inhibition at 50 g/ha: 70%
Avena fatua (AVEFA); 480 h, 20 DAT
  inhibition at 50 g/ha: 85%
Bromus inermis (BROIN); 192 h, 8 DAT
  inhibition at 6.25 g/ha: 40%
  inhibition at 12.5 g/ha: 50%
  inhibition at 25 g/ha: 50%
  inhibition at 50 g/ha: 60%
Bromus inermis (BROIN); 480 h, 20 DAT
  inhibition at 6.25 g/ha: 35%
  inhibition at 12.5 g/ha: 60%
  inhibition at 25 g/ha: 60%
  inhibition at 50 g/ha: 75%
[1]; 192 h, 8 DAT
  inhibition at 25 g/ha: 60%
  inhibition at 50 g/ha: 60%
[1]; 480 h, 20 DAT
  inhibition at 25 g/ha: 95%
  inhibition at 50 g/ha: 95%
Galium aparine (GALAP); 192 h, 8 DAT
  inhibition at 6.25 g/ha: 30%
  inhibition at 25 g/ha: 60%
  inhibition at 50 g/ha: 60%
Galium aparine (GALAP); 480 h, 20 DAT
  inhibition at 6.25 g/ha: 20%
  inhibition at 25 g/ha: 75%
  inhibition at 50 g/ha: 80%
[2]; 192 h, 8 DAT
  inhibition at 6.25 g/ha: 40%
[2]; 480 h, 20 DAT
  inhibition at 6.25 g/ha: 40%
Thlaspi arvense (THLAR) [3]; 192 h, 8 DAT
  inhibition at 12.5 g/ha: 40%
  inhibition at 50 g/ha: 60%
Thlaspi arvense (THLAR) [3]; 480 h, 20 DAT
  inhibition at 12.5 g/ha: 30%
  inhibition at 50 g/ha: 80%
Veronica persica (VERPE); 192 h, 8 DAT
  inhibition at 6.25 g/ha: 45%
  inhibition at 12.5 g/ha: 60%
  inhibition at 25 g/ha: 60%
  inhibition at 50 g/ha: 60%
Veronica persica (VERPE); 480 h, 20 DAT
  inhibition at 6.25 g/ha: 70%
  inhibition at 12.5 g/ha: 90%
  inhibition at 25 g/ha: 85%
  inhibition at 50 g/ha: 90%
[4]; 20 DAT
  observed activity in % destruction 20 days after treatment: 65%
[4]; 168 h, 7 DAT
  inhibition at 25 g/ha: 25%
[4]; 480 h, 20 DAT
  inhibition at 25 g/ha: 65%
[5]
  observed activity in % destruction 20 days after treatment: 45%
[6]
  observed activity in % destruction 20 days after treatment: 85%
[7]
  observed activity in % destruction 20 days after treatment: 35%
Lamium purpureum (LAMPU)
  observed activity in % destruction 20 days after treatment: 70%
[8]; 168 h, 7 DAT
  inhibition at 50 g/ha: 40%
[8]; 480 h, 20 DAT
  inhibition at 50 g/ha: 0%
Stellaria media (STEME); 50 g ai/ha
  observed activity in % destruction 20 days after treatment: 85%
Stellaria media (STEME); 100 g ai/ha
  observed activity in % destruction 20 days after treatment: 95%
Thlaspi arvense (THLAR) [9]; 25 g ai/ha, 20 DAT
  observed activity in % destruction 20 days after treatment: 50%
Thlaspi arvense (THLAR) [9]; 100 g ai/ha, 20 DAT
  observed activity in % destruction 20 days after treatment: 80%
Thlaspi arvense (THLAR) [9]; 168 h, 100 g ai/ha, 7 DAT
  inhibition at 100 g/ha: 70%
Thlaspi arvense (THLAR) [9]; 480 h, 100 g ai/ha, 20 DAT
  inhibition at 100 g/ha: 80%
Viola arvensis (VIOAR)
  observed activity in % destruction 20 days after treatment: 0%
Harmful plants
  post-emergence activity: only poor post-emergence activity

— US20110009265A1, “Herbicidal Compositions Comprising Pyroxasulfone” (BASF SE, priority 2008, published 2011)
